Values of other authors in patent publication US6869615B2, “Pharmaceutical formulations containing a non-steroidal antiinflammatory drug and a proton pump inhibitor” (Andrx Labs LLC, priority 2000, dated 2005).

Row | SMILES | patients with side effects that require cessation of medication (NSAIDs such as diclofenac) | patients who experience gross bleeding and ulceration (chronic use, Langman et al, Lancet 1994)
1 | O=C(O)Cc1ccccc1Nc1c(Cl)cccc1Cl [diclofenac] | about 20% | 
2 | CN1C(C(=O)Nc2ccccn2)=C(O)c2ccccc2S1(=O)=O [piroxicam] |  | up to 4%
